The source of these data is article PMC11281344 (Viruses, 2024).

Data set [1] concerns BHK-21 cells.
Data set [2] relates to FMDV serotype A [A/TAI/NP05/2017 (NP05)]. The experiment in a line: microbe, parasite or virus in culture. The class given is cell-based, Foot-and-mouth disease virus. To be noted: for EC50: read-out: Antiviral Activity (EC50) CPE (Crystal Violet).
Data set [3] has as its system human herpes simplex virus-2 (HSV-2). As to conditions: cited from earlier work.
Data set [4] can be described thus: in vitro. To be noted: hamster.
Data set [5] has as its system FMDV serotype A [A/TAI/NP05/2017 (NP05)]. Put plainly: microbe, parasite or virus in culture. The class given is cell-based, Foot-and-mouth disease virus.
Data set [6] shares this test system. Put plainly: microbe, parasite or virus in culture. The class given is cell-based, Foot-and-mouth disease virus. To be noted: for EC50: read-out: Antiviral Activity (EC50) Viral Copy Number (RT-qPCR). For orientation: In qPCR the cycle at which signal appears reflects the starting amount.
In data set [7] the test system is ZIKV. As to conditions: read-out: IC50 against ZIKV; cited from earlier work.
Data set [8] deals with FMDV 3D^pol (Foot-and-mouth disease virus serotype O, UniProt P03305). Put plainly: cell-based. The class given is cell-based.
Sequence of FMDV 3D^pol (P03305 1863-2332 limits assumed): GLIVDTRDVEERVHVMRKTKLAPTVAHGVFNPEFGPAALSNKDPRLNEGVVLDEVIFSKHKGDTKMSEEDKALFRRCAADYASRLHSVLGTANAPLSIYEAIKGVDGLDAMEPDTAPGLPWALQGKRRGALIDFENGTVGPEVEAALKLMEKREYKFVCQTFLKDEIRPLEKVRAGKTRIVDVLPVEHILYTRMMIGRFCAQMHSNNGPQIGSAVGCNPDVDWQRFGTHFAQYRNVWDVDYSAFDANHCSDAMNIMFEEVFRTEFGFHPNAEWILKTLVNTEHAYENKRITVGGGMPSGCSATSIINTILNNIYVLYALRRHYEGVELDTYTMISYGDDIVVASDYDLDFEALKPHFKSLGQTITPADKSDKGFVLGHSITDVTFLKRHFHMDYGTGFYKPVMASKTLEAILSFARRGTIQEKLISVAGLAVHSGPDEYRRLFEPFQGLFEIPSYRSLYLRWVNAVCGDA
The subject of data set [9] is HSV-1. To be noted: cited from earlier work.
The mark [10] stands for this setting: read-out: Antiviral Activity (EC50) FMDV-Infected Cells (IPMA).
The mark [11] stands for this setting: Foot-and-mouth disease virus, BHK-21, 24 h.
[12] abbreviates: Foot-and-mouth disease virus, BHK-21, read-out: Antiviral Activity (EC50) FMDV-Infected Cells (IPMA).

Read-outs that look alike come from different tables or passages of the source.

For the molecule `CC(=O)O[C@@]12CO[C@@H]1C[C@H](O)[C@@]1(C)C(=O)[C@H](O)C3=C(C)[C@@H](O)C[C@@](O)([C@@H](OC(=O)c4ccccc4)[C@H]21)C3(C)C` [10-Deacetylbaccatin III], in [1], the CC50 is above 500 µM.

For `CC(C)C1=CC2=CC[C@@H]3[C@](C)(CCC[C@@]3(C)C(=O)O)[C@H]2CC1` [Abietic acid], in [2], the “Antiviral Activity (EC50) CPE (Crystal Violet)” value is on record as “Not inhibit” and the “Antiviral activity against FMDV infection (result in words)” value (shortened to “Antiviral activity … (result in words)”) is “did not exhibit antiviral activity”. Also, the “Activity against HSV-2 (result in words)” value in data set [3] is reported as “did not exhibit such activity”. This molecule also yielded a CC50 in data set [4] of 99.2 ± 2 µM.

As for `C[C@@H]1C[C@@H]([C@@H](O)C(C)(C)O)O[C@H]2C[C@@]3(C)C(=C12)C[C@H](O)[C@H]1[C@@]2(C)CCC(=O)C(C)(C)[C@@H]2CC[C@@]13C` [Alisol F], the CC50 in data set [1] was determined as 85.2 ± 1.93 µM.

In general, EC50 refers to the concentration that produces a half-maximal response. One may read the IC50 as the concentration that inhibits the measured activity by half. Take `CC1=CC(=O)[C@@H](O)[C@]2(C)[C@H]3[C@@H](O)[C@H](O)[C@@]4(C)OC[C@@]35[C@@H](C[C@@H]12)OC(=O)[C@H](O)[C@]54O` [Bruceine D]: in [2], the “Antiviral activity … (result in words)” value was “exhibited antiviral activities” and the concentration giving a half-maximal response (EC50) came out at 0.25 ± 0.6 µM. Moreover, in data set [5] (setting [10]), the concentration for a half-maximal effect (EC50) was found to be 0.32 ± 0.49 µM. Also, in data set [6], the “Concentration range of complete inhibition of FMDV” value was 1 to 2.5 µM and the EC50 amounted to 0.42 ± 0.38 µM. Besides, the IC50 in data set [7] is 360 nM.

For the molecule `CC1=C[C@H](O)[C@@H](O)[C@]2(C)[C@H]3[C@@H](O)[C@H](O)[C@@]4(C)OC[C@@]35[C@@H](C[C@@H]12)OC(=O)[C@H](O)[C@]54O` [Bruceine E], the “Antiviral activity … (result in words)” value in data set [2] is “exhibited antiviral activities”. Also, the EC50 in data set [2] (setting [11]) worked out at 18.1 ± 1.26 µM; in data set [5] (setting [12]) it was 12.9 ± 1.11 µM; in data set [6] (setting [11]), 33.4 ± 1.52 µM. Besides, in data set [6], the “Inhibition of viral load (result in words)” value (from here on “Inhibition of viral load”) is given as “moderate potency”. In data set [8], this molecule returned an IC50 of 26.7 ± 1.43 µM. Also, the “Inhibition of FMDV 3Dpol (result in words)” value in data set [8] is “moderate inhibition”. The CC50 in [4] worked out at 49.6 ± 1.7 µM.

In the case of `C=CC1(C)C=C2CCC3C(C)(C(=O)O)CCCC3(C)C2CC1` (centres unmarked) [Continentalic acid], the “Antiviral activity … (result in words)” value in [2] was “exhibited antiviral activities”. The EC50 in data set [2] (setting [11]) was 43.4 ± 1.64 µM; in data set [5] (setting [12]), 35 ± 1.54 µM; in data set [6] (setting [11]), 68.3 ± 1.83 µM. Further, in data set [6], the “Inhibition of viral load” value is “moderate inhibition”. The IC50 in data set [8] turned out to be 36.9 ± 1.57 µM. Moreover, in data set [8], the “Inhibition of FMDV 3Dpol (result in words)” value is given as “moderate inhibition”. The molecule also displayed a CC50 in data set [4] of 88.7 ± 1.82 µM.

Turning to `CC(C)(O)CCC(=O)[C@](C)(O)C1[C@H](O)C[C@@]2(C)[C@@H]3CC=C4[C@@H](C[C@H](O)[C@@H](O)C4(C)C)[C@]3(C)C(=O)C[C@]12C` (some centres unmarked) [Cucurbitacin IIb], in data set [1], the CC50 was 240.5 ± 2.38 µM.

In the case of `CC(C)c1ccc2c(c1)CC[C@H]1[C@](C)(C(=O)O)CCC[C@]21C` [Dehydroabietic acid], the “Antiviral activity … (result in words)” value in data set [2] is “exhibited antiviral activities”. Also, the EC50 in [2] (setting [11]) is 41.7 ± 1.62 µM; in [5] (setting [12]), 34 ± 1.53 µM; in [6] (setting [11]) it was 64.5 ± 1.81 µM. In data set [6], the “Inhibition of viral load” value is “low to moderate inhibition”. Moreover, the IC50 in [8] is above 50 µM. Also, the “Activity against HSV-2 (result in words)” value in data set [3] was “moderate activity”. Besides, the “Activity against HSV-1 (result in words)” value in [9] is “did not inhibit”. For the same molecule, the CC50 in data set [4] turned out to be 94.8 ± 1.98 µM.

Molecule `C=C1[C@H](OC(=O)c2ccccc2)C[C@H]2[C@@H](/C=C(\C)C(=O)[C@@]3(OC(C)=O)C[C@H](C)[C@H](OC(=O)c4ccccc4)[C@@H]3[C@H]1OC(C)=O)C2(C)C` [Euphorbia factor L2] came in with a CC50 in [1] of 114 ± 2.06 µM.

For the molecule `CC(=O)O[C@H]1[C@H]2[C@@H](OC(=O)Cc3ccccc3)[C@@H](C)C[C@]2(OC(C)=O)C(=O)/C(C)=C/[C@@H]2[C@H](CC[C@@]13CO3)C2(C)C` [Euphorbiasteroid], the CC50 in [1] is above 500 µM.

Take `C=C[C@@]1(C)CC(=O)[C@]2(O)[C@@]3(C)[C@@H](O)CCC(C)(C)[C@@H]3[C@H](O)[C@H](OC(C)=O)[C@@]2(C)O1` [Forskolin]: the CC50 in data set [4] came to 75.9 ± 1.88 µM.

`C[C@H](CC(=O)C[C@@H](C)[C@H]1C[C@H](O)[C@@]2(C)C3=C(C(=O)C[C@]12C)[C@@]1(C)CCC(=O)C(C)(C)[C@@H]1C[C@@H]3O)C(=O)O` [Ganoderic acid A]: the CC50 in data set [4] was above 500 µM.

Molecule `C[C@@H]1C(=O)O[C@H]2C[C@@]34[C@H]5C[C@@H](C(C)(C)C)[C@]36[C@@H](OC(=O)[C@@H]6O)O[C@@]4(C(=O)O5)[C@]21O` [Ginkgolide A] came in with a CC50 in data set [4] of 314.2 ± 2.5 µM.

In data set [1], `CC(C)=CCC[C@](C)(O)[C@H]1CC[C@]2(C)[C@@H]1[C@H](O)C[C@@H]1[C@@]3(C)CC[C@H](O[C@@H]4O[C@H](CO)[C@@H](O)[C@H](O)[C@H]4O[C@@H]4O[C@H](CO)[C@@H](O)[C@H](O)[C@H]4O)C(C)(C)[C@@H]3CC[C@]12C` [Ginsenoside Rg3] yielded a CC50 of 269.9 ± 2.43 µM.

On to `CC(C)=CCC[C@](C)(O)[C@H]1CC[C@]2(C)[C@@H]1[C@H](O)C[C@@H]1[C@@]3(C)CC[C@H](O)C(C)(C)[C@@H]3[C@@H](O[C@@H]3O[C@H](CO)[C@@H](O)[C@H](O)[C@H]3O)C[C@]12C` [Ginsenoside Rh1], for which, in [4], the CC50 came out at 174 ± 2.24 µM.

With `CC1=C[C@]23C(=O)[C@@H](C=C(CO)[C@@H](O)[C@]2(O)[C@H]1O)[C@H]1[C@@H](C[C@H]3C)C1(C)C` [Ingenol], the CC50 in data set [4] was determined as 417.1 ± 2.62 µM.

On to `C=C1C[C@@]23CC[C@H]4[C@@](C)(CCC[C@@]4(C)C(=O)O)[C@@H]2CC[C@@H]1C3` [Kaurenoic acid], for which, in data set [2], the “Antiviral Activity (EC50) CPE (Crystal Violet)” value was “Not inhibit” and the “Antiviral activity … (result in words)” value was “did not exhibit antiviral activity”. In data set [4], this molecule registered a CC50 of 266.1 ± 2.42 µM.

The molecule `C=C1CC[C@H]2[C@@H](/C=C(\C)C(=O)[C@@]3(O)C[C@H](C)[C@H](O)[C@@H]3[C@@H]1O)C2(C)C` [Lathyrol] came in with a CC50 in [1] of 314.6 ± 2.5 µM.

For the molecule `CC1(C)O[C@H]2CC(=O)OC[C@]23[C@H]2CC[C@@]4(C)[C@H](c5ccoc5)OC(=O)[C@H]5O[C@]54[C@]2(C)C(=O)C[C@@H]13` [Limonin], the CC50 in data set [4] is 116 ± 2.07 µM.

`C=C1C(=O)[C@]23[C@H](O)[C@H]1CC[C@H]2[C@@]12CO[C@]3(O)[C@@H](O)[C@@H]1C(C)(C)CC[C@@H]2O` [Oridonin] showed a CC50 in data set [4] of 46.8 ± 1.67 µM.

In data set [1], `COC(=O)C1=CC[C@@]23CC[C@@H]([C@@](C)(/C=C/C=C(\C)C(=O)O)OC2=O)[C@@]3(OC(C)=O)CC1` [Pseudolaric acid] gave a CC50 of 25.3 ± 1.4 µM.

With `NC(=O)c1ncn([C@@H]2O[C@H](CO)[C@@H](O)[C@H]2O)n1` [Ribavirin, reference compound], the values for the EC50 in data set [2] (setting [11]), in [5] (setting [12]) and in data set [6] (setting [11]) were 64.5 ± 1.81 µM, 40.9 ± 1.61 µM and 27.7 ± 1.44 µM, respectively. In addition, the CC50 in data set [4] was above 500 µM.

In data set [1], `C[C@@H]1CC[C@]2(C(=O)O[C@@H]3O[C@H](CO)[C@@H](O)[C@H](O)[C@H]3O)CC[C@]3(C)C(=CC[C@@H]4[C@@]5(C)C[C@@H](O)[C@H](O)C(C)(C)[C@@H]5CC[C@]43C)[C@@H]2[C@]1(C)O` [Rosamultin] yielded a CC50 of 333.2 ± 2.52 µM.

For the molecule `C=C(C(=O)O)[C@H]1CC[C@H](C)[C@@H]2CC(=O)C(C)=C2C1` [Rupestonic acid], the CC50 in data set [1] is 72.3 ± 1.86 µM.

In [4], `CC1(C)O[C@H]2CC(=O)OC[C@]23[C@H]2CC[C@@]4(C)[C@H](c5ccoc5)OC(=O)[C@H]5O[C@]54[C@]2(C)[C@@H](O)C(=O)[C@@H]13` [Rutaevin] came in with a CC50 of 472 ± 2.67 µM.

`C[C@H]1O[C@@H](O[C@H]2CC[C@@]3(C)[C@@H](CC[C@]4(C)[C@@H]3C=CC3=C5CC(C)(C)CC[C@]5(CO)[C@H](O)C[C@]34C)[C@]2(C)CO)[C@H](O)[C@@H](O[C@@H]2O[C@H](CO)[C@@H](O)[C@H](O)[C@H]2O)[C@H]1O` [Saikosaponin B2] returned a CC50 in data set [1] above 500 µM.

In data set [4], `CCC(C)(C)C(=O)O[C@H]1C[C@@H](C)C=C2C=C[C@H](C)[C@H](CC[C@@H]3C[C@@H](O)CC(=O)O3)[C@H]21` [Simvastatin, reference compound] returned a CC50 of 294.4 ± 2.47 µM.

In data set [4], `CC1(C)CCC2(C(=O)O)CCC3(CO)C(=CCC4C5(C)CC(O)C(OC6OC(CO)C(O)C(O)C6O)C(C)(C(=O)O)C5CCC43C)C2C1` (centres unmarked) [Tenuifolin] returned a CC50 of 54.9 ± 1.74 µM.

Regarding `CC(C)[C@]12O[C@H]1[C@@H]1O[C@]13[C@]1(O[C@H]1C[C@H]1C4=C(CC[C@@]13C)C(=O)OC4)[C@@H]2O` [Triptolide], the CC50 in data set [4] was 122 ± 2.09 µM.

The molecule `CC(C)c1ccc2c(c1O)CC[C@H]1C3=C(CC[C@]21C)C(=O)OC3` [Triptophenolide] yielded a CC50 in data set [4] of 117 ± 2.07 µM.

Molecule `C[C@@H]1CC[C@]2(C(=O)O)CC[C@]3(C)C(=CC[C@@H]4[C@@]5(C)CC[C@H](O[C@@H]6OC[C@H](O)[C@H](O)[C@H]6O)C(C)(C)[C@@H]5CC[C@]43C)[C@@H]2[C@]1(C)O` [Ziyuglycoside II] yielded a CC50 in [1] of 57.7 ± 1.76 µM.

Brusatol: the “Antiviral activity … (result in words)” value in data set [2] is “exhibited antiviral activities”. Moreover, the results for the EC50 in [2], in data set [5] (setting [10]) and in data set [6] were 0.18 ± 0.27 µM, 0.07 µM and 0.09 µM, respectively. Besides, the “Concentration range of complete inhibition of FMDV” value in data set [6] is 0.5 to 1 µM.
